Data: patent publication US8476298B2 (Exelixis, Inc., priority 2003, dated 2013)
Read-outs that look alike come from different tables or passages of the source.

Legend:
c-Kit kinase = c-Kit kinase (Homo sapiens, UniProt P10721); experiment: c-Kit AlphaScreen kinase assay; type: biochemical;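 note: c-Kit kinase phosphorylating biotinylated poly(Glu,Tyr), ATP near its KM, 1 h reaction at ambient temperature, AlphaScreen chemiluminescence with streptavidin donor and anti-phosphotyrosine acceptor beads, 10-point inhibitor titration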
[1] = target: T1, c-Met (baculovirus expressed human c-Met kinase domain P948-S1343) (Homo sapiens, UniProt P08581); experiment: c-Met Luciferase-Coupled Chemiluminescent Kinase assay (LCCA); type: biochemical;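 note: kinase activity read as percent ATP left after reaction, by luciferase-luciferin chemiluminescence, with 1 µM ATP and 1 µM poly-EY substrate, 2 h at ambient temperature, 10-point dose-response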
T1 construct: human c-Met kinase domain P948-S1343; host or cells: baculovirus expression

[2] = target: T2, Flt-3 (baculovirus expressed human Flt-3 kinase domain R571-S993) (Homo sapiens, UniProt P36888); experiment: biochemical; settings: read-out: flt3 IC50;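 note: Luciferase-coupled chemiluminescent kinase assay, activity read as percent ATP left after a 3 h reaction at room temperature, ATP near KM, 10-point dose-response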
T2 construct: human Flt-3 kinase domain R571-S993; host or cells: baculovirus expression
T2 sequence (P36888 571-993): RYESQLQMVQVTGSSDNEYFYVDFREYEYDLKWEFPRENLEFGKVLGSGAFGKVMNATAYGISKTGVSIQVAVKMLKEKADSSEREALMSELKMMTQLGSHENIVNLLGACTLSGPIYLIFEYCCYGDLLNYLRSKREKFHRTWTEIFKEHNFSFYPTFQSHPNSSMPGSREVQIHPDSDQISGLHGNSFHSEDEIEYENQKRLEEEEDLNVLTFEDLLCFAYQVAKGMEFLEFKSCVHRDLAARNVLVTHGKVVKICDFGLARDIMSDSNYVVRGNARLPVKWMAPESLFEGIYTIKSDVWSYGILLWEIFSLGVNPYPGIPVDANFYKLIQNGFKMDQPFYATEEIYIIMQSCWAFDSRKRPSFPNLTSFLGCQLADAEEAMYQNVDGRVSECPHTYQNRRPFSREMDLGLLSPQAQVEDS

[3] = target: T3, KDR (baculovirus expressed human KDR kinase domain D807-V1356) (Homo sapiens, UniProt P35968); experiment: biochemical;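 note: Luciferase-coupled chemiluminescent kinase assay, activity read as percent ATP left after 4 h reaction at ambient temperature, ATP near KM, 10-point dose-response in 384-well plates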
T3 construct: human KDR kinase domain D807-V1356; host or cells: baculovirus expression

[4] = target: T4, Flt-4 (baculovirus expressed human Flt-4 kinase domain D725-R1298) (Homo sapiens, UniProt P35916); experiment: flt-4 Alphascreen Tyrosine Kinase assay; type: biochemical; settings: read-out: flt4 IC50;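 note: AlphaScreen chemiluminescence read-out of biotinylated poly(Glu,Tyr) 4:1 phosphorylation via streptavidin donor and PY100 anti-phosphotyrosine acceptor beads, ATP near KM, 1 hr kinase reaction, 10-point dose-response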
T4 construct: human Flt-4 kinase domain D725-R1298; host or cells: baculovirus expression
Description: Kinase activity and compound inhibition are investigated using one or more of the three assay formats described below. The ATP concentrations for each assay are selected to be close to the Michaelis-Menten constant (KM) for each individual kinase. Dose-response experiments are performed at 10 different inhibitor concentrations in a 384-well plate format. […] Typically H is close to unity. c-Met Assay
Biochemical activity for flt-4 was assessed using an Alphascreen Tyrosine Kinase protocol. AlphaScreen™ (Perkin Elmer) technology is a proximity assay employing microparticles. Singlet oxygen derived from a donor bead following laser excitation results in chemiluminescence when in proximity (100 Å) to an acceptor bead due to biomolecular interactions. For the Flt-4 assay, donor beads coated with streptavidin and acceptor beads coated with PY100 anti-phosphotyrosine antibody were used (Perkin Elmer). Biotinylated poly(Glu,Tyr) 4:1 (Perkin Elmer) was used as the substrate. Substrate phosphorylation was measured by addition of donor/acceptor beads by chemiluminescence following donor-acceptor bead complex formation. […] Reaction mixtures were incubated for 1 hr at ambient temperature. […] After 2-16 hr incubation at ambient temperature plates were read using an AlphaQuest reader (Perkin Elmer).

[5] = Table 4, inhibition as IC50 class

T3 sequence (P35968 807-1356): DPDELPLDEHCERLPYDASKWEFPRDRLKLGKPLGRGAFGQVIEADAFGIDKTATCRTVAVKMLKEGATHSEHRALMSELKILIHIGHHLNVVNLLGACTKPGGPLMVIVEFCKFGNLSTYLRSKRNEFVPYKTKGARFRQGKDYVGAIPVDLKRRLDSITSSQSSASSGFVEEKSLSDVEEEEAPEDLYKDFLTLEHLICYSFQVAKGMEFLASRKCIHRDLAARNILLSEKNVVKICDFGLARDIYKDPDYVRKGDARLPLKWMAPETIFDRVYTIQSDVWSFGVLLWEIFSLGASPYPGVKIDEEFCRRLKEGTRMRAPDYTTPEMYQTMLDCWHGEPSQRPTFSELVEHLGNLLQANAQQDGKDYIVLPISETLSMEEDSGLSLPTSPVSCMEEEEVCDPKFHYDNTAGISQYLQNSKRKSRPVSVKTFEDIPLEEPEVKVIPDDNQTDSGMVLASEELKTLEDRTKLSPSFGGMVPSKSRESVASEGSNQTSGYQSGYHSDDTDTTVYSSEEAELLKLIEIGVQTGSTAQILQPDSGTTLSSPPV
T1 sequence (P08581 1011-1343 limits assumed): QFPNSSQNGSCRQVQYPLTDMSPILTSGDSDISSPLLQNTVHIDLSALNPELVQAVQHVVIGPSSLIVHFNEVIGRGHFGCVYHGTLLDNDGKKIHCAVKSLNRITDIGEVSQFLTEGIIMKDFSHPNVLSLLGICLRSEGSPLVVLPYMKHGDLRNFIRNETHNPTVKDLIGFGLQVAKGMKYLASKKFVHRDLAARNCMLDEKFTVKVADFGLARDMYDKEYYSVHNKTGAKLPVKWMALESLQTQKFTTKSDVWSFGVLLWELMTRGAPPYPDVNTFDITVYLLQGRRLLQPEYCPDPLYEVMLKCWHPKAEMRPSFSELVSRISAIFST
c-Kit kinase, sequence (P10721 26-976): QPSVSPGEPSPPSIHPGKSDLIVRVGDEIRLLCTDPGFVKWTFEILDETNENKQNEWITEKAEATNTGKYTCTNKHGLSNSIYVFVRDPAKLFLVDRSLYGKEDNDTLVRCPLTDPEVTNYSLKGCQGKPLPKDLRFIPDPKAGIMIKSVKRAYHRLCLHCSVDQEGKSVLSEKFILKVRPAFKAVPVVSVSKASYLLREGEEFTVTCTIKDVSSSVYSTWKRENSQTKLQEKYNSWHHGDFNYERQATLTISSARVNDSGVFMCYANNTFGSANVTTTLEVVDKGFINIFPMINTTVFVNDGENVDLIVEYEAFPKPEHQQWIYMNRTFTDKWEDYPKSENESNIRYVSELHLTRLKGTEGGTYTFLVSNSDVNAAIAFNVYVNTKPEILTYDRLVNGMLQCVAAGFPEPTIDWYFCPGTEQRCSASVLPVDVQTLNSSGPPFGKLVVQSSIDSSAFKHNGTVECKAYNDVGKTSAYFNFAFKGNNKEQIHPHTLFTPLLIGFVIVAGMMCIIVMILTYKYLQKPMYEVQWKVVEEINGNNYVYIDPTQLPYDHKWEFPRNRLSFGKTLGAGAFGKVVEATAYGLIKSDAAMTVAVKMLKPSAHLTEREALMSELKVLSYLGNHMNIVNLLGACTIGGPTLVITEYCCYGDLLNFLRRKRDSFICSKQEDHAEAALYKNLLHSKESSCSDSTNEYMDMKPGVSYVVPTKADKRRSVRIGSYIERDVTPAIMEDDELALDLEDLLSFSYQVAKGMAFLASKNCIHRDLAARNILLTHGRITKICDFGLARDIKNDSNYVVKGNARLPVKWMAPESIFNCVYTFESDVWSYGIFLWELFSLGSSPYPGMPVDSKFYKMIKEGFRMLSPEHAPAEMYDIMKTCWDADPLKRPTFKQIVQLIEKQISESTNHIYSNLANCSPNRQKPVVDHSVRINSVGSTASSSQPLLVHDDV
T4 sequence (P35916 725-1298 isoform P35916-1): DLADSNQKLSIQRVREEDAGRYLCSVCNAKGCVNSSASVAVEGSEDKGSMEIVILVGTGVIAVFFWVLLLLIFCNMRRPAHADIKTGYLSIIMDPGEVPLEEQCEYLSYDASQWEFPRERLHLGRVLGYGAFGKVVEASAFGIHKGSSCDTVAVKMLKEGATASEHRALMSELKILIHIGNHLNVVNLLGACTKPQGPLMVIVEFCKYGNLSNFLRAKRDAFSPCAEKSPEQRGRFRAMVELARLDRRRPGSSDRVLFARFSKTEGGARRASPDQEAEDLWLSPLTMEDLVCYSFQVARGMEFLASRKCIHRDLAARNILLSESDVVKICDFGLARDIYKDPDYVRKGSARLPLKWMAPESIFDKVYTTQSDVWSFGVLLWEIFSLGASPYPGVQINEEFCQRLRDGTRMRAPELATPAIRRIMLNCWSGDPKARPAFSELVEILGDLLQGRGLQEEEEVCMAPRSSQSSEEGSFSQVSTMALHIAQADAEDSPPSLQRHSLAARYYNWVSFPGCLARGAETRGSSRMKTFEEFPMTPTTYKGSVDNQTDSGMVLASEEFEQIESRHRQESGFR

Compound	IC50 (c-Kit kinase)	IC50 [1]	IC50 [2]	IC50 [3]	IC50 [4]	IC50 (c-Kit kinase; [5])	IC50 [1, 5]	IC50 [2, 5]	IC50 [3, 5]	IC50 [4, 5]
COc1cc2c(Oc3ccc(NC(=O)C(=O)N4CCCC4)cc3F)ccnc2cc1OCC1CCNCC1 [Example 299, N-[3-fluoro-4-({6-(methyloxy)-7-[(piperidin-4-ylmethyl)oxy]quinolin-4-yl}oxy)phenyl]-2-oxo-2-pyrrolidin-1-ylacetamide]	50 to 500 nM	< 50 nM	50 to 500 nM	50 to 500 nM	50 to 500 nM	–	–	–	–	–
COc1cc2nccc(Oc3ccc(NC(=O)C4(C(=O)Nc5ccc(F)cc5)CC4)c(C)c3)c2cc1OC [Example 317, N-(4-{[6,7-bis(methyloxy)quinolin-4-yl]oxy}-2-methylphenyl)-N′-(4-fluorophenyl)cyclopropane-1,1-dicarboxamide]	< 50 nM	< 50 nM	500 to 5000 nM	< 50 nM	< 50 nM	–	–	–	–	–
CCNC(=O)C(=O)Nc1ccc(Oc2ccnc3cc(OCC4CCNCC4)c(OC)cc23)c(F)c1 [Example 293, N-ethyl-N′-[3-fluoro-4-({6-(methyloxy)-7-[(piperidin-4-ylmethyl)oxy]quinolin-4-yl}oxy)phenyl]ethanediamide]	50 to 500 nM	< 50 nM	50 to 500 nM	50 to 500 nM	50 to 500 nM	–	–	–	–	–
COc1ccc(CCNC(=O)C(=O)Nc2ccc(Oc3ccnc4cc(OCC5CCNCC5)c(OC)cc34)c(F)c2)cc1 [Example 228, N-[3-fluoro-4-({6-(methyloxy)-7-[(piperidin-4-ylmethyl)oxy]quinolin-4-yl}oxy)phenyl]-N′-{2-[4-(methyloxy)phenyl]ethyl}ethanediamide]	–	–	–	–	–	50 to 500 nM	< 50 nM	50 to 500 nM	50 to 500 nM	50 to 500 nM
O=C(Nc1ccc(F)cc1)C1(C(=O)Nc2ccc(Oc3ccnc4cc(Cl)ccc34)c(F)c2)CC1 [Example 303, N-{4-[(7-chloroquinolin-4-yl)oxy]-3-fluorophenyl}-N′-(4-fluorophenyl)cyclopropane-1,1-dicarboxamide]	500 to 5000 nM	< 50 nM	500 to 5000 nM	< 50 nM	50 to 500 nM	–	–	–	–	–
COc1cc2c(Oc3ccc(NC(=O)C(=O)NCCOc4ccccc4)cc3F)ccnc2cc1OCC1CCNCC1 [Example 226, N-[3-fluoro-4-({6-(methyloxy)-7-[(piperidin-4-ylmethyl)oxy]quinolin-4-yl}oxy)phenyl]-N′-[2-(phenyloxy)ethyl]ethanediamide]	–	–	–	–	–	< 50 nM	< 50 nM	< 50 nM	< 50 nM	< 50 nM
COc1cc2c(Oc3ccc(NC(=O)C(=O)Nc4cccc(F)c4)cc3F)ccnc2cc1OCC1CCNCC1 [Example 260, N-[3-fluoro-4-({6-(methyloxy)-7-[(piperidin-4-ylmethyl)oxy]quinolin-4-yl}oxy)phenyl]-N′-(3-fluorophenyl)ethanediamide]	–	–	–	–	–	50 to 500 nM	< 50 nM	500 to 5000 nM	500 to 5000 nM	500 to 5000 nM
COc1cc2c(Oc3ccc(NC(=O)C(=O)NCc4cc(Cl)cc(Cl)c4)cc3F)ccnc2cc1OCC1CCNCC1 [Example 217, N-[(3,5-dichlorophenyl)methyl]-N′-[3-fluoro-4-({6-(methyloxy)-7-[(piperidin-4-ylmethyl)oxy]quinolin-4-yl}oxy)phenyl]ethanediamide]	–	–	–	–	–	< 50 nM	< 50 nM	< 50 nM	< 50 nM	< 50 nM
COc1ccc(NC(=O)C(=O)Nc2ccc(Oc3ccnc4cc(OCC5CCNCC5)c(OC)cc34)c(F)c2)cc1OC [Example 262, N-[3,4-bis(methyloxy)phenyl]-N′-[3-fluoro-4-({6-(methyloxy)-7-[(piperidin-4-ylmethyl)oxy]quinolin-4-yl}oxy)phenyl]ethanediamide]	–	–	–	–	–	500 to 5000 nM	< 50 nM	50 to 500 nM	500 to 5000 nM	50 to 500 nM
COc1cc2c(Oc3ccc(NC(=O)C(=O)NCCc4ccccc4)cc3F)ncnc2cc1OCC1CCNCC1 [Example 275, N-[3-fluoro-4-({6-(methyloxy)-7-[(piperidin-4-ylmethyl)oxy]quinazolin-4-yl}oxy)phenyl]-N′-(2-phenylethyl)ethanediamide]	–	–	–	–	–	< 50 nM	< 50 nM	< 50 nM	< 50 nM	< 50 nM
COc1cc2c(Oc3ccc(NC(=O)C4(C(=O)Nc5ccc(F)cc5)CC4)cc3F)ccnc2cc1OCC1CCN(C)CC1 [Example 334, N-{3-fluoro-4-[(6-(methyloxy)-7-{[(1-methylpiperidin-4-yl)methyl]oxy}quinolin-4-yl)oxy]phenyl}-N′-(4-fluorophenyl)cyclopropane-1,1-dicarboxamide]	< 50 nM	< 50 nM	< 50 nM	< 50 nM	< 50 nM	–	–	–	–	–
COc1cc2nccc(Oc3cc(F)c(NC(=O)C4(C(=O)Nc5ccc(F)cc5)CC4)cc3F)c2cc1OC [Example 324, N-(4-{[6,7-bis(methyloxy)quinolin-4-yl]oxy}-2,5-difluorophenyl)-N′-(4-fluorophenyl)cyclopropane-1,1-dicarboxamide]	< 50 nM	< 50 nM	< 50 nM	< 50 nM	< 50 nM	–	–	–	–	–
COc1cc2c(Oc3ccc(NC(=O)C(=O)NCc4cccc(C(F)(F)F)c4)cc3F)ccnc2cc1OCC1CCNCC1 [Example 239, N-[3-fluoro-4-({6-(methyloxy)-7-[(piperidin-4-ylmethyl)oxy]quinolin-4-yl}oxy)phenyl]-N′-{[3-(trifluoromethyl)phenyl]methyl}ethanediamide]	–	–	–	–	–	< 50 nM	< 50 nM	< 50 nM	< 50 nM	50 to 500 nM
COc1cc2c(Oc3ccc(NC(=O)C(=O)NCCc4ccc(C)cc4)cc3F)ccnc2cc1OCC1CCNCC1 [Example 271, N-[3-fluoro-4-({6-(methyloxy)-7-[(piperidin-4-ylmethyl)oxy]quinolin-4-yl}oxy)phenyl]-N′-[2-(4-methylphenyl)ethyl]ethanediamide]	–	–	–	–	–	50 to 500 nM	< 50 nM	< 50 nM	50 to 500 nM	50 to 500 nM
COc1cc2c(Oc3ccc(NC(=O)C(=O)NCc4cc(C(F)(F)F)ccc4Cl)cc3F)ccnc2cc1OCC1CCNCC1 [Example 234, N-{[2-chloro-5-(trifluoromethyl)phenyl]methyl}-N′-[3-fluoro-4-({6-(methyloxy)-7-[(piperidin-4-ylmethyl)oxy]quinolin-4-yl}oxy)phenyl]ethanediamide]	–	–	–	–	–	50 to 500 nM	< 50 nM	< 50 nM	< 50 nM	50 to 500 nM
COc1cc2c(Oc3ccc(NC(=O)C(=O)NCc4cccc(Cl)c4)cc3F)ccnc2cc1OCC1CCNCC1 [Example 243, N-[(3-chlorophenyl)methyl]-N′-[3-fluoro-4-({6-(methyloxy)-7-[(piperidin-4-ylmethyl)oxy]quinolin-4-yl}oxy)phenyl]ethanediamide]	–	–	–	–	–	< 50 nM	< 50 nM	50 to 500 nM	< 50 nM	50 to 500 nM
COc1cc2c(Oc3ccc(NC(=O)C(=O)NCCc4ccccc4)cc3F)ncnc2cc1OCC1C[C@H]2CNC[C@H]2C1 (stereo partly drawn) [Example 285, N-{3-fluoro-4-[(6-(methyloxy)-7-{[(3aR,6aS)-octahydrocyclopenta[c]pyrrol-5-ylmethyl]oxy}quinazolin-4-yl)oxy]phenyl}-N′-(2-phenylethyl)ethanediamide]	< 50 nM	< 50 nM	< 50 nM	< 50 nM	< 50 nM	–	–	–	–	–
COc1ccc(CCN(C)C(=O)C(=O)Nc2ccc(Oc3ccnc4cc(OCC5CCNCC5)c(OC)cc34)c(F)c2)cc1OC [Example 279, N-{2-[3,4-bis(methyloxy)phenyl]ethyl}-N′-[3-fluoro-4-({6-(methyloxy)-7-[(piperidin-4-ylmethyl)oxy]quinolin-4-yl}oxy)phenyl]-N-methylethanediamide]	–	–	–	–	–	50 to 500 nM	50 to 500 nM	< 50 nM	50 to 500 nM	50 to 500 nM
COc1cc2nccc(Oc3ccc(NC(=O)C4(C(=O)Nc5ccc(F)cc5)CC4)cc3F)c2cc1O [Example 330, N-(3-fluoro-4-{[6-hydroxy-7-(methyloxy)quinolin-4-yl]oxy}phenyl)-N′-(4-fluorophenyl)cyclopropane-1,1-dicarboxamide]	< 50 nM	< 50 nM	< 50 nM	< 50 nM	< 50 nM	–	–	–	–	–
COc1cc2c(Oc3ccc(NC(=O)C(=O)NCc4ccc(OC(F)(F)F)cc4)cc3F)ccnc2cc1OCC1CCNCC1 [Example 246, N-[3-fluoro-4-({6-(methyloxy)-7-[(piperidin-4-ylmethyl)oxy]quinolin-4-yl}oxy)phenyl]-N′-({4-[(trifluoromethyl)oxy]phenyl}methyl)ethanediamide]	–	–	–	–	–	50 to 500 nM	< 50 nM	50 to 500 nM	50 to 500 nM	50 to 500 nM
